Source: patent publication US20040029829A1, “External skin preparations and process for producing the same” (priority 2000, published 2004)

Test system: human epidermic cells
Experiment: Cell activation effect by cell culture (metabolic activity, WST-1)
Assay type: cell-based
Details: 0.5% fermented product 1 (SB), alone or combined
Protocol: Immortalized cells obtained by transforming human epidermic cells (manufactured by Kurabo Industries, Ltd.) using SV40 virus T antigen according to the method of Yasumoto et al. (Cultured Cell Experiment For Molecular Biology Research by S. Yasumoto, edited by T. Kuroki et al., Yodosha Co., Ltd., 1995, pp 191-200) were used as test cells. The cells were disseminated in a 96 well plate (4×10^3 cells/0.1 ml/well) and cultured in a serum-free liquid medium for proliferation (HuMedia-KG 2: Kurabo Industries, Ltd.) under the conditions of 37° C. and a CO2 concentration of 5%. […] The cells were also cultured in media to which the above components were individually added as Comparative Examples, and in a medium to which none of these components were added as a control. On the third day of culturing, a reducing-type coloring reagent (WST-1, manufactured by Dojindo Co.) was added in an amount of 10 μl/well, followed by incubation for 2 hours under the conditions of 37° C. and a CO2 concentration of 5%. Then, absorption at 450-660 nm was measured. Metabolic activity of the cells was calculated from the resulting absorbance. The cell activation effect was evaluated from the rate of increase in the metabolic activity in comparison with the control sample. […]

| SMILES | metabolic activity of human epidermic cells (5×10^−10 M all-trans-retinoic acid (RA), FIG. 2) | metabolic activity of human epidermic cells (5×10^−9 M all-trans-retinol (ROH), FIG. 1) |
| --- | --- | --- |
| CC1=C(/C=C/C(C)=C/C=C/C(C)=C/C(=O)O)C(C)(C)CCC1 [all-trans-retinoic acid] | cannot exhibit metabolic activity | – |
| CC1=C(/C=C/C(C)=C/C=C/C(C)=C/CO)C(C)(C)CCC1 [all-trans-retinol] | – | cannot exhibit metabolic activity |
